Here are results for 2 compounds from ChEMBL document CHEMBL5505987 (Eur J Med Chem, 2024).

Common to all, as to format: functional, cell-based
For one experiment, the system named is HeLa. In words: Cytotoxicity against human HeLa cells assessed as cell viability by MTT assay.
The next experiment deals with MCF7. The experiment is described as follows: Cytotoxicity against human MCF7 cells assessed as cell viability by MTT assay. In general terms: Formazan colour is commonly taken as a measure of viable cells.
A further experiment deals with A549. The experiment is described as follows: Cytotoxicity against human A549 cells assessed as cell viability by MTT assay.
The next experiment has as its system MDA-MB-231. In words: Cytotoxicity against human MDA-MB-231 cells assessed as cell viability by MTT assay.

For the compound `O=C1C[C@H](c2ccccc2)Oc2cc(O)c([C@H](/C=C/C[C@@H](O)CCc3ccccc3)c3ccccc3)c(O)c21`, the IC50 stood at 1.58 µM with HeLa, 12.5 µM in the experiment with MCF7, 5.59 µM in the experiment with A549 and 3.45 µM with MDA-MB-231.
Consider `O=C1C[C@H](c2ccccc2)Oc2cc(O)c([C@@H](/C=C/C[C@@H](O)CCc3ccccc3)c3ccccc3)c(O)c21`, for which the IC50 amounted to 2 µM in the experiment with HeLa, 8.5 µM with MCF7, 5.27 µM in the experiment on A549 and 4.05 µM in the experiment with MDA-MB-231.

In general, IC50 refers to the concentration that inhibits the measured activity by half.
